In PubChem BioAssay (NCI):
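Step 1: Grow cells in 96-well plates. Step 2: Expose to compound for 48 hours at 5 concentrations. Step 3: Interpolate endpoints linearly; if unreached, use highest concentration. GI50 is the concentration that inhibits growth by half. TGI denotes the concentration required for complete inhibition of growth.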

How the values were obtained:
Assay in all cases: NCI tumour cell line growth inhibition, 48 h
BT-549 breast = tested on: BT-549 breast
786-0 renal = tested on: 786-0 renal
T-47D breast = tested on: T-47D breast
LXFL 529 NSCLC = tested on: LXFL 529 NSCLC
KM20L2 colon = tested on: KM20L2 colon
HOP-18 NSCLC = tested on: HOP-18 NSCLC
DMS 273 small cell lung = tested on: DMS 273 small cell lung
P388 leukemia = tested on: P388 leukemia
SN12K1 renal = tested on: SN12K1 renal
DLD-1 colon = tested on: DLD-1 colon
DMS 114 small cell lung = tested on: DMS 114 small cell lung
P388/ADR leukemia = tested on: P388/ADR leukemia
XF 498 CNS = tested on: XF 498 CNS
RXF-631 renal = tested on: RXF-631 renal

Compound | TGI (786-0 renal) [µM] | TGI (T-47D breast) [µM] | TGI (KM20L2 colon) [µM] | TGI (HOP-18 NSCLC) [µM] | TGI (DMS 273 small cell lung) [µM] | TGI (DLD-1 colon) [µM] | TGI (DMS 114 small cell lung) [µM] | TGI (XF 498 CNS) [µM] | other results
NC(=O)NC1NC(=O)NC1=O (stereo not given) | > 100 | > 100 |  |  |  |  |  |  | TGI (BT-549 breast): > 100 µM
N=C1C(=N)c2ccccc2-c2ccccc21.[Cl-].[Ru+2].c1cnc2c(c1)ccc1cccnc12.c1cnc2c(c1)ccc1cccnc12 | > 100 |  | 92.5 |  |  |  |  |  | GI50 (LXFL 529 NSCLC): 18.9 µM; TGI (LXFL 529 NSCLC): 55.7 µM; GI50 (KM20L2 colon): 34.5 µM
CCOC(=O)/C=C/CC(C)(C)COC(C)=O |  | > 10 |  |  |  |  |  |  | 
CC(=O)c1c(-c2ccc(Cl)cc2)c(-c2ccc(Cl)cc2)n[nH]c1=O | > 100 | > 100 |  |  |  |  |  |  | 
C=C(C)C1CC=C(C)C(=O)C1 (stereo not given) | > 100 | > 100 |  |  |  |  |  |  | 
CCC(C)C(=O)OC1C(=O)OC2CC3C(C)=CC(=O)C(O)C3(C)C3C4(O)OCC23C1C(C)C4O (stereo not given) |  | 0.158 |  |  |  |  |  |  | TGI (BT-549 breast): 0.094 µM
Cc1[nH]c(=O)[nH]c(=O)c1/C=C/C(=O)NC(CO)CC(C)C (stereo not given) |  |  | > 237 | > 375 | > 375 | > 375 | > 375 | > 346 | TGI (P388 leukemia): > 375 µM; TGI (SN12K1 renal): > 375 µM; TGI (P388/ADR leukemia): > 149 µM
COc1ccc(C2C(C(=O)O)=C(CO)Oc3cc4c(cc32)OCO4)cc1 (stereo not given) |  |  | > 100 | > 100 | > 100 | > 100 | > 100 | > 100 | TGI (RXF-631 renal): > 100 µM
NCC(Cl)C(O)c1cnc(N)[nH]1 (stereo not given) |  |  | 20.8 | 3.45 | 21.4 | 29.2 | 40.7 | 9.23 | TGI (P388 leukemia): 1.06 µM; TGI (SN12K1 renal): 12.4 µM; TGI (P388/ADR leukemia): 10.1 µM
